In ChEMBL document CHEMBL1140420, “Synthesis of tricyclic 1,3-oxazin-4-ones and kinetic analysis of cholesterol esterase and acetylcholinesterase inhibition” (J Med Chem, 2005):
pIC50, pKi: −log10 of the molar value.

Tests used:
[1] = biological target: T1, Bile salt-activated lipase (Bos taurus, UniProt P30122)
T1 sequence (P30122 whole entry): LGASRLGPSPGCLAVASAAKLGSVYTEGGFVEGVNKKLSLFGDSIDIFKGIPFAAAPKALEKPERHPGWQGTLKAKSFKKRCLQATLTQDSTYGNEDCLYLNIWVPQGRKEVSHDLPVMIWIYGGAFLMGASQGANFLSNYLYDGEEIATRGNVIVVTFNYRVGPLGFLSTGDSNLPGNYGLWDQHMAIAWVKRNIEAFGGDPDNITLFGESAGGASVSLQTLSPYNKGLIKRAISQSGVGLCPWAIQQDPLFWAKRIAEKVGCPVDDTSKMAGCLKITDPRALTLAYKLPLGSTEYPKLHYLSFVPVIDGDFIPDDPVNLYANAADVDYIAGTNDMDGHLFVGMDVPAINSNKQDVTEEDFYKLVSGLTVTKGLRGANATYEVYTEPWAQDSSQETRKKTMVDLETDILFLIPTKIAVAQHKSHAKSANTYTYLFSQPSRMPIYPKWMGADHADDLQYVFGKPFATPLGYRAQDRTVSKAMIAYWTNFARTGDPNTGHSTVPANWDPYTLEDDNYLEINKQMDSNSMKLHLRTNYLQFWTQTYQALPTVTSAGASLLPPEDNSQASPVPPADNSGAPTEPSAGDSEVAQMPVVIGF
Description: Inhibitory activity against bovine pancreatic CEase in presence of pNPB chromogenic substrate by spectrophotometry

[2] = biological target: Acetylcholinesterase (Electrophorus electricus, UniProt O42275)
Sequence of Acetylcholinesterase (O42275 whole entry): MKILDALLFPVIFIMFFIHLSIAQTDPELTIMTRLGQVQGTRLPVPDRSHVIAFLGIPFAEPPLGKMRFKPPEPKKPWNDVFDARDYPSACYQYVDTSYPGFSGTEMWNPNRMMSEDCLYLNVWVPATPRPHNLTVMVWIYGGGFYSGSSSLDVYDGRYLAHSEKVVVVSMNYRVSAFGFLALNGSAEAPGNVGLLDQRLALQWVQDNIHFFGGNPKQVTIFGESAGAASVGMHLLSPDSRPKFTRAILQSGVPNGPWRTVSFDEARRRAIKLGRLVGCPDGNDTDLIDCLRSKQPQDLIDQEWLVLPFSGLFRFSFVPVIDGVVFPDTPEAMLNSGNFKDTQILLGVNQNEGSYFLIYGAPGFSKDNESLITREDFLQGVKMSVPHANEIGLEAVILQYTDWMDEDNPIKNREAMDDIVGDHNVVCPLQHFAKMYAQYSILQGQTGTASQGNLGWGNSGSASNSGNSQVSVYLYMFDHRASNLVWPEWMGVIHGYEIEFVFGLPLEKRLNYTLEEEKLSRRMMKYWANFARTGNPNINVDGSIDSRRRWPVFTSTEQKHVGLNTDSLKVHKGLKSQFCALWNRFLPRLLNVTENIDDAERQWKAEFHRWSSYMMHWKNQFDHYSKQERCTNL
Description: Inhibitory activity AChE from Electrophorus electricus using ATCh substrate and DTNB by spectrophotometry

Row | Structure (SMILES) | pKi [1] | pIC50 [2] | pKi [2]
1 | O=c1sc(Nc2ccccc2)nc2sc3c(c12)CCN(Cc1ccccc1)C3 | < 4.30 | 5.99 | –
2 | CCN1CCc2c(sc3nc(N(C)C)oc(=O)c23)C1 | < 4.30 | 4.98 | –
3 | CN(C)c1nc2sc3c(c2c(=O)o1)CCOC3 | < 4.30 | < 4.30 | –
4 | CC(C)Nc1nc2sc3c(c2c(=O)s1)CCN(Cc1ccccc1)C3 | < 4.30 | 6.24 | –
5 | O=c1sc(NC2CCCCC2)nc2sc3c(c12)CCN(Cc1ccccc1)C3 | < 4.30 | 5.55 | –
6 | CCN(CC)c1nc2sc(C)c(C)c2c(=O)o1 | 5.37 | < 4.30 | –
7 | O=c1oc(N2CCN(Cc3ccccc3)CC2)nc2sc3c(c12)CCN(Cc1ccccc1)C3 | < 4.30 | 5.88 | –
8 | CCN(CC)c1nc2sc3ccccc3c2c(=O)o1 | 5.12 | < 4.30 | –
9 | CC(C)CN1CCc2c(sc3nc(N(C)C)oc(=O)c23)C1 | < 4.30 | 6.44 | 6.18
10 | CCN(CC)c1nc2sc3c(c2c(=O)o1)CCCC3 | 5.73 | < 4.30 | –
11 | CC(C)Nc1nc2sc3c(c2c(=O)o1)CCN(Cc1ccccc1)C3 | < 4.30 | 6.13 | –
12 | O=C(Nc1nc2sc3c(c2c(=O)s1)CCN(Cc1ccccc1)C3)c1ccccc1 | < 4.30 | 5.28 | –
13 | CN(C)c1nc2sc3c(c2c(=O)o1)CCN(Cc1ccccc1)C3 | < 4.30 | 6.05 | 5.77
14 | CN1CCc2c(sc3nc(N(C)C)oc(=O)c23)C1 | < 4.30 | 4.41 | –
15 | CN(C)c1nc2sc3c(c2c(=O)o1)CCN(C(=O)c1ccccc1)C3 | < 4.30 | 4.45 | –
16 | CCN(CC)c1nc2sc3c(c2c(=O)o1)CCC3 | 6.24 | < 4.30 | –
17 | O=c1oc(N2CCOCC2)nc2sc3c(c12)CCCC3 | 5.24 | < 4.30 | –
18 | CCN(CC)c1nc2scc(C(C)C)c2c(=O)o1 | 5.19 | < 4.30 | –

Row | Structure (SMILES) | pKi [1] | pIC50 [2] | pKi [2]
19 | O=C(Nc1nc2sc3c(c2c(=O)o1)CCN(Cc1ccccc1)C3)c1ccccc1 | < 4.30 | 5.54 | –
20 | CCN(CC)c1nc2sc3c(c2c(=O)o1)CCCCC3 | 5.22 | < 4.30 | –
21 | O=c1oc(NC2CCCCC2)nc2sc3c(c12)CCN(Cc1ccccc1)C3 | < 4.30 | – | –
22 | O=c1oc(Nc2ccccc2)nc2sc3c(c12)CCN(Cc1ccccc1)C3 | < 4.30 | 6.03 | –
23 | CN(C)c1nc2sc3c(c2c(=O)o1)CCC3 | 6.20 | < 4.30 | –
24 | CCN(CC)c1nc2sc3c(c2c(=O)o1)CCN(Cc1ccccc1)C3 | < 4.30 | 5.68 | –
25 | Nc1nc2sc3c(c2c(=O)o1)CCN(Cc1ccccc1)C3 | < 4.30 | 5.23 | –
26 | COc1ccc(CN(C)c2nc3sc4c(c3c(=O)o2)CCN(Cc2ccccc2)C4)cc1OC | < 4.30 | 6.48 | –
27 | CCN(CC)c1nc2sc(C(N)=O)c(C)c2c(=O)o1 | < 4.30 | < 4.30 | –
28 | CC(C)Nc1nc2sc3c(c2c(=O)o1)CCCC3 | < 4.30 | < 4.30 | –
29 | Nc1nc2sc3c(c2c(=O)s1)CCN(Cc1ccccc1)C3 | < 4.30 | 5.92 | –
30 | CN(c1nc2sc3c(c2c(=O)o1)CCCC3)C1CCCCC1 | 4.74 | < 4.30 | –
31 | CN(C)c1nc2sc3c(c2c(=O)o1)CCCC3 | 5.67 | < 4.30 | –
32 | CN(Cc1ccccc1)c1nc2sc3c(c2c(=O)o1)CCN(Cc1ccccc1)C3 | < 4.30 | 6.08 | –
33 | CCN(CC)c1nc2sc3c(c2c(=O)o1)C(C)CCC3 (stereo not drawn) | 5.79 | < 4.30 | –
34 | O=c1oc(N2CCOCC2)nc2sc3c(c12)CCN(Cc1ccccc1)C3 | < 4.30 | 6.11 | –
35 | CN(C)c1nc2sc3c(c2c(=O)o1)CCSC3 | 5.24 | < 4.30 | –
36 | CCN(CC)c1nc2scc(C)c2c(=O)o1 | 4.82 | < 4.30 | –
